Legend:
[1] = target: GST-p53 His175 (Homo sapiens, UniProt P04637, R175H); test: Dot immunobinding test with purified GST-p53 fusion proteins; type: binding; conditions: 20 μg GST fusion purified proteins
Method: (A) Total extracts deriving from SKBR3, (His-175) HT29, (His-273) and H1299 (p53 free) tumour cells have been incubated (1 mg) on SIMP1 and SIMPIKO peptide labelled nitrocellulose membrane and Dot Blot analysed. In (B) the membranes have been incubated with 20 μg of wild type WT GST-p53 purified protein or GST-p53 His-175, GST-p53-His-175, 74-298 or GST alone. In both experiments dots have been detected by labelling the membranes with anti-p53 (DO1) antibody
Nitrocellulose membranes have been cut, washed with water and blotted on the paper filters. The peptides at 250 mM concentration have been transferred on membrane. Labelled membrane has been washed for 10 min. with TBST buffer (10 mM Tris-HCl pH 7.4, 150 mM NaCl, 0.05% (v/v) Tween-20) and then blocked for 45 min with TBST/5% milk. Then the membranes have been incubated for 6 hours at 4° C. in shaker with 1 mg of total protein extract or 20 μg of GST fusion purified proteins. Successively the membranes have been washed with TBST buffer and decorated with anti-p53 antibody (DO1) as a primary antibody. As secondary antibody horse peroxidase conjugated goat antibody has been used. Immunolabelled lanes have been detected using chemiluminescence analysis (Pierce).
The membranes decorated with SIMP peptides also have been incubated with GST-p53 His175, GST p53His74-298, GST WTp53 fusion proteins, GST control.

[2] = tested on: HT29 cells; test: In vivo tumorigenicity test (xenograft of peptide transfected HT29 cells); conditions: naked mice, s.c. 5×10^5 peptide transfected cells/mouse, 5 weeks
Method: In order to assay SIMP1 in vivo antitumor activity nu/nu […] mice were administered subcutaneously with SIMP1, SIMP1KO and SIMP5M transfected HT29 cells (5.0×10^5 cells/mouse). Tumour growth has been monitored over 5 weeks.
Xenograft assays have been carried out by administration to naked mice subcutaneous injections containing 5×10^5 cells/mouse of SIMP1, SIMP1KO and SIMP5M peptide transfected colon and rectum tumour human cell line (nu/nu CD1 Charles River mice). The tumour growth together with animal body weight is monitored for 5 weeks in order to estimate the chronic toxicity
The experiments have been carried out by administration to naked mouse (nu/nu CD1 Charles River mice) subcutaneous injections containing 5×10^5 cells/mouse. The tumour growth has been monitored together with animal body weight for 5 weeks in order to estimate possible not occurred chronic toxic effects (FIG. 5).

[3] = tested on: tumour cell lines containing His-175 or His-273 p53 mutation; test: Summary of activity by p53 mutation type; type: cell-based; conditions: for activity on p53 mutant categories (His-175, His-273): summary statement; for specificity for p53 mutation type: FIG. 6 summary
Excerpt: SIMP1M: FQQSSTARSATW (SEQ ID NO:16) (MW: 1369, PI: 9.75) peptide is a mutated version of SIMP1 peptide wherein K138 residue has been replaced by Arginine.
FIG. 6 that SIMP peptides and by-products thereof displace protein complexes involving mutated protein p53 and p73.

[4] = tested on: m-p53 His273 inhibition on p73 transcription activity; test: Transactivation test with pLUC-BAX reporter in transiently transfected H1299 cells; type: cell-based, human; conditions: peptides 20 μM each
Method: (A) MDA-MB-468 (5×10^5) cells have been transfected using a lipofectamine containing mixture, βgal expression vector, which normalizes transfection efficiency, and SIMPI peptide (20 μM). Total cellular lysates (1 mg), have been immunoprecipitated with antibodies directed against p73 and immunoglobulins (IgG). Immunoprecipitates and an aliquot (50 μg) of total lysate after 12% acrylamide gel electrophoretic run have been transferred on nitrocellulose membrane and labelled with antibodies shown in the figure. (B) MDA-MB-468 cells, have been transfected using SIMP1 and SIMP5,6. peptides. Successively, cells have been washed and stimulated with 3 μM Adriamycin. Total obtained lysates (30 μg) have been assayed for the expression of PARP and BAX apoptotic proteins. Lysate has been normalized by assaying γ-tubulin expression. (C-D). Transactivation tests have been carried out by transient transfection of H1299 cells using a mixture containing lipofectamine, SIMP1, SIMP5,6 indicated plasmids (20 μM each) together with pLUC-BAX reporter vector. To each reaction mixture an equal amount of […] expression vector was added, in order to normalize the transfection efficiency. […]
To this end, we have analyzed the ability in blocking the His273 p53 induced inhibition on transcription activity. […]

[5] = target: T1, m-p53His-273/p73 complex (Homo sapiens, UniProt P04637, R273H); test: Coprecipitation (immunoprecipitation) test of the m-p53/p73 complex in MDA-MB-468 cells; type: cell-based; conditions: His-273 mutation, peptide 20 μM, anti-p73 immunoprecipitation
T1 construct: Total cellular lysates (1 mg), have been immunoprecipitated with antibodies directed against p73; endogenous in cells; host or cells: MDA-MB-468
Method: (§1) (A) MDA-MB-468 (5×10^5) cells have been transfected using a lipofectamine containing mixture, βgal expression vector, which normalizes transfection efficiency, and SIMPI peptide (20 μM). Total cellular lysates (1 mg), have been immunoprecipitated with antibodies directed against p73 and immunoglobulins (IgG). Immunoprecipitates and an aliquot (50 μg) of total lysate after 12% acrylamide gel electrophoretic run have been transferred on nitrocellulose membrane and labelled with antibodies shown in the figure. (B) MDA-MB-468 cells, have been transfected using SIMP1 and SIMP5,6. peptides. Successively, cells have been washed and stimulated with 3 μM Adriamycin. Total obtained lysates (30 μg) have been assayed for the expression of PARP and BAX apoptotic proteins. Lysate has been normalized by assaying γ-tubulin expression. (C-D). Transactivation tests have been carried out by transient transfection of H1299 cells using a mixture containing lipofectamine, SIMP1, SIMP5,6 indicated plasmids (20 μM each) together with pLUC-BAX reporter vector. To each reaction mixture an equal amount of […] expression vector was added, in order to normalize the transfection efficiency.
The cell extracts have been processed in a lysis buffer containing 50 mm Tris HCl pH 8, 100 mM NaCl, 10% glycerol, 1% Triton X-100, 1 mM EDTA, 100 mM NaF, MgCl2, 1 mM PMSF, protease and phosphatase inhibitors. Then extracts have been sonicated and centrifuged at 14.000 rpm for 10 min for the debris removal.
50 μg of solubilised proteins have been separated by electrophoresis on 10 or 15% SDS-polyacrylamide gel. Western blot analysis has been carried out using anti-p53 primary antibodies (DO1 Calbiochem), rabbit anti-PARP, rabbit polyclonal anti-Bax, anti-p21 and anti-tubulin monoclonal antibodies (Calbiochem). […] Immunolabelled lanes have been detected using chemiluminescence analysis (Pierce). […]
In order to evaluate the activity of SIMPI peptide and SIMP1KO and SIMP1M derivatives the ability in disrupting the oncogenic m-p53His-273/p73 complex has been analysed.

[6] = tested on: MDA-MB-468 cells (His-273 p53 mutation); test: Transactivation test (pLUC-BAX, pLUC-p21) in Adriamycin treated MDA-MB-468 cells; type: cell-based, human; conditions: MDA-MB-468, 3 μM Adriamycin 24 hours post-transfection, luciferase reporter
Method: MDA-MB-468 cells have been transfected using a mixture containing lipofectamine, pLUC-BAX plasmid, β-galactosidase expression vector, SIMP1 and SIMP control peptides. The cells, 24 hours post-transfection, have been treated with 3 μM Adriamycin.
MDA-MB-468 cells have been transfected using a mixture containing lipofectamine, pLUC-BAX plasmid, pLUC-p21, β-galactosidase expression vector, SIMP1 peptides and SIMP1M and SIMP1KO derived mutant thereof. The cells, 24 hours post-transfection, have been treated with 3 μM Adriamicyn and then processed.
SKBR3, HT-29, MDA-MB-468 cell lines have been transfected with Lipofectamine 2000 according to the supplier instructions (InVitrogen).
Cells (1.5×10^5) have been transiently transfected using SIMP peptides, expression plasmids and reporter constructs as internal controls for transfection efficiency. After the transfection, SKBR3, HT-29 and MDA-MB-468 have been incubated with 3 μM ADR over 24 hours. Cells have been washed with cold PBS and re-suspended in lysis buffer (Promega) and incubated for 10 min at room temp. Insoluble material has been centrifuged and luciferase activity has been determined using a commercial kit with a luminometer (Turner).

[7] = tested on: MDA-MB-468 cells; test: Apoptotic tests (PARP and BAX expression, Western blot) after Adriamycin; type: cell-based, human; conditions: MDA-MB-468, 3 μM Adriamycin
Method: as §1
50 μg of solubilised proteins have been separated by electrophoresis on 10 or 15% SDS-polyacrylamide gel. Western blot analysis has been carried out using anti-p53 primary antibodies (DO1 Calbiochem), rabbit anti-PARP, rabbit polyclonal anti-Bax, anti-p21 and anti-tubulin monoclonal antibodies (Calbiochem). Goat anti-mouse and goat anti-rabbit horse peroxidase conjugated secondary antibodies (Amersham) have been used for the expression analyses. Immunolabelled lanes have been detected using chemiluminescence analysis (Pierce).
To this end cell viability and apoptotic tests (FIG. 1B, FIG. 4 B-C) on MDA-MB468 breast carcinoma have been carried out.

[8] = tested on: MDA-MB468 breast and HT29 colon carcinoma cell lines; test: Cell viability / proliferation assays after peptide transfection; type: cell-based, human; conditions: peptide transfected cells
Method: (A) In order to verify the SIMPI peptide specificity, independently from the cellular context, we tested SIMP1 peptides in some Adriamicyn treated colon carcinoma HT29 (His-273). cell lines. The cells have been transfected using a mixture containing lipofectamine, pLUC-BAX plasmid, β-galactosidase expression vector, SIMP1 and SIMP5M control peptides. 24 hours post-transfection, have been treated with 3 μM Adriamicyn. (B-C). Viability and inhibition assays have been carried out after transfection using SIMP1 and SIMP5M peptides in HT29 (colon cancer) and MDA-MB-468 (breast cancer) cell lines
Cell viability has been tested using Trypan Blue exclusion assays.
We observed a reduction of cell proliferation in MDA-MB468 breast and HT29 colon carcinoma cell lines.

[9] = tested on: SKBR3 tumour lines, containing his-175 mutation; conditions: SKBR3, his-175 mutation; cited from earlier work
[10] = tested on: SW480 and MDA-MB-468; conditions: cell lines containing other types of mutation (SW480, MDA-MB-468); cited from earlier work

Sequence | reaction with GST-p53 fusion proteins (dot blot, anti-p53 DO1) [1] | tumour growth (tumour size) in vivo [2] | activity on p53 mutant categories (His-175, His-273) [3] | specificity for p53 mutation type [3] | sensitivity to chemotherapeutic treatment [9] | change in apoptotic response [10] | also measured
FQQSSTAASATW (SEQ ID NO1 wherein K is substituted by A) [SIMP1KO] | no reaction was observed | tumour growth similar to non treated control | displays no activity on both mutant categories |  |  |  | 
FQQSSTARSATW (SEQ ID NO1 wherein k is substituted by R) [SIMP1M] |  | meaningful reduction of the growth (tumour size) | displays the same, although increased, functions | display specificity for His-273 mutation containing tumours |  |  | restoration of p73 transcription activity inhibited by m-p53 His273 [4]: modify mutated p53/p73 protein complex restoring p73 oncosuppressive functions; disruption of m-p53 His-273/p73 protein complex (p73 bound m-p53 amount) [5]: disrupt selectively m-p53/p73 complex; Adriamycin chemosensitivity / p73 transcription response [6]: increase Adriamycin chemosensitivty; apoptotic response [7]: increase the apoptotic response to chemotherapeutic agents; activity on tumour cell lines containing different mutation types ([3]; mutations other than His-273): has no activity on tumour cell lines containing different mutation types; cell proliferation in vitro [8]: reduce the cell proliferation in vitro
GQRDFNEGQSAPA (p73 SIMP (aa 200-211) wherein Q has been inserted between G (aa200) and R (aa201)) [SIMP6] |  |  |  |  | more sensitive to chemotherapeutic treatment | do not induce changes in the apoptotic response | 
VVKRCPNHE (p73 SIMP (aa 190-198)) [SIMP5] |  |  |  |  | more sensitive to chemotherapeutic treatment | do not induce changes in the apoptotic response | 
VVKRCPNHELGRD (p73 SIMP (aa 190-202)) [SIMP5M, control peptide, reference compound] | specifically reacts against his175 m-p53 | tumour growth similar to non treated control |  | specific for His-175 mutation containing tumours |  |  | 

— patent US20120237614A1, “PEPTIDE ABLE TO DISRUPT THE PROTEIN COMPLEX BETWEEN THE HIS273 MUTADED P53 PROTEIN AND THE ONCOSUPPRESSIVE P73 PROTEIN IN TUMOR CELLS AND THERAPEUTIC USES THEREOF” (priority 2009, published 2012)
